Laboratory results taken from patent US20230143604A1, “QW DOSING OF GIP RECEPTOR AGONIST PEPTIDE COMPOUNDS AND USES THEREOF” (TAKEDA PHARMACEUTICAL COMPANY LIMITED, priority 2020, published 2023).
Starred links: 1 amine or outer side, 2 acyl side, 3 side chain; linkers in the order of their positions; H or OH if unused. Non-standard residues stand in square brackets, D forms with d. Residues, ends and D or L forms follow the SMILES beside them. Groups on a side chain read outwards from the residue. *: point of attachment. C18 diacid = O=C(O)CCCCCCCCCCCCCCCCC(=O)*; C17 diacid = O=C(O)CCCCCCCCCCCCCCCC(=O)*; γGlu = O=C(O)[C@H](CCC(=O)[*:2])N[*:1]; AEEA = NCCOCCOCC(=O)O; Aib = CC(C)(N)C(=O)O

Experiment: physchem
Method in brief: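 Solubility at pH 7.4 determined by stepwise addition of 200 mM phosphate buffer in 100 μL increments to 3 mg peptide, mixing briefly each time, until no insoluble material remained, then measured by liquid chromatography.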

Row | SMILES | solubility (pH 7.4) | solubility (pH 7.4, aqueous buffer)
1 | CC[C@H](C)[C@H](NC(=O)[C@H](CCCCN)NC(=O)[C@H](CC(=O)O)NC(=O)[C@H](CC(C)C)NC(=O)[C@H](C)NC(=O)[C@@H](NC(=O)[C@H](CO)NC(=O)[C@H](Cc1ccc(O)cc1)NC(=O)[C@H](CC(=O)O)NC(=O)[C@H](CO)NC(=O)[C@@H](NC(=O)[C@H](Cc1ccccc1)NC(=O)[C@@H](NC(=O)CNC(=O)[C@H](CCC(=O)O)NC(=O)C(C)(C)NC(=O)[C@@H](N)Cc1ccc(O)cc1)[C@@H](C)O)[C@@H](C)CC)[C@@H](C)CC)C(=O)N[C@@H](C)C(=O)N[C@@H](CCC(N)=O)C(=O)N[C@@H](CCC(N)=O)C(=O)N[C@@H](CCCCNC(=O)COCCOCCNC(=O)COCCOCCNC(=O)CC[C@H](NC(=O)CC[C@H](NC(=O)CCCCCCCCCCCCCCCC(=O)O)C(=O)O)C(=O)O)C(=O)N[C@@H](Cc1ccccc1)C(=O)N[C@H](C(=O)N[C@@H](CCC(=O)O)C(=O)N[C@@H](Cc1c[nH]c2ccccc12)C(=O)N[C@@H](CC(C)C)C(=O)N[C@@H](CC(C)C)C(=O)N[C@@H](C)C(=O)N[C@@H](CCC(N)=O)C(=O)N[C@@H](CCCNC(=N)N)C(=O)NCC(=O)O)C(C)C [Compound 142] (H-Y[Aib]EGTFISDYSIALDKIAQQK([AEEA-AEEA-γGlu-γGlu-C17 diacid])FVEWLLAQRG-OH) | ≥ 15 mg/mL | ≥ 30 mg/mL
2 | CC[C@H](C)[C@H](NC(=O)[C@H](CCCCN)NC(=O)[C@H](CC(=O)O)NC(=O)[C@H](CC(C)C)NC(=O)[C@H](C)NC(=O)[C@@H](NC(=O)[C@H](CO)NC(=O)[C@H](Cc1ccc(O)cc1)NC(=O)[C@H](CC(=O)O)NC(=O)[C@H](CO)NC(=O)[C@@H](NC(=O)[C@H](Cc1ccccc1)NC(=O)[C@@H](NC(=O)CNC(=O)[C@H](CCC(=O)O)NC(=O)C(C)(C)NC(=O)[C@@H](N)Cc1ccc(O)cc1)[C@@H](C)O)[C@@H](C)CC)[C@@H](C)CC)C(=O)N[C@@H](C)C(=O)N[C@@H](CCC(N)=O)C(=O)N[C@@H](CCCNC(=N)N)C(=O)N[C@@H](CCCCNC(=O)COCCOCCNC(=O)COCCOCCNC(=O)CC[C@H](NC(=O)CC[C@H](NC(=O)CCCCCCCCCCCCCCCC(=O)O)C(=O)O)C(=O)O)C(=O)N[C@@H](Cc1ccccc1)C(=O)N[C@H](C(=O)N[C@@H](CCC(=O)O)C(=O)N[C@@H](Cc1c[nH]c2ccccc12)C(=O)N[C@@H](CC(C)C)C(=O)N[C@@H](CC(C)C)C(=O)N[C@@H](C)C(=O)N[C@@H](CCC(N)=O)C(=O)N[C@@H](CCCNC(=N)N)C(=O)NCC(=O)O)C(C)C [Compound 143] (H-Y[Aib]EGTFISDYSIALDKIAQRK([AEEA-AEEA-γGlu-γGlu-C17 diacid])FVEWLLAQRG-OH) | ≥ 15 mg/mL | ≥ 30 mg/mL
3 | CC[C@H](C)[C@H](NC(=O)[C@H](Cc1ccccc1)NC(=O)[C@@H](NC(=O)CNC(=O)[C@H](CCC(=O)O)NC(=O)C(C)(C)NC(=O)[C@@H](N)Cc1ccc(O)cc1)[C@@H](C)O)C(=O)N[C@@H](CO)C(=O)N[C@@H](CC(=O)O)C(=O)N[C@@H](Cc1ccc(O)cc1)C(=O)N[C@@H](CO)C(=O)N[C@H](C(=O)NC(C)(C)C(=O)N[C@@H](CCCCNC(=O)CNC(=O)CNC(=O)CNC(=O)CNC(=O)CNC(=O)CCCCCCCCCCCCCCCCC(=O)O)C(=O)N[C@@H](CC(=O)O)C(=O)N[C@@H](CCCNC(=N)N)C(=O)NC(C)(C)C(=O)N[C@@H](C)C(=O)N[C@@H](CCC(N)=O)C(=O)N[C@@H](CCCNC(=N)N)C(=O)N[C@@H](CC(=O)O)C(=O)N[C@@H](Cc1ccccc1)C(=O)N[C@H](C(=O)N[C@@H](CCC(=O)O)C(=O)N[C@@H](Cc1c[nH]c2ccccc12)C(=O)N[C@@H](CC(C)C)C(=O)N[C@@H](CC(C)C)C(=O)N[C@@H](C)C(=O)N[C@@H](CCC(N)=O)C(=O)N[C@@H](CCCNC(=N)N)C(=O)NCC(=O)O)C(C)C)[C@@H](C)CC [Compound 147] | ≥ 15 mg/mL | 
4 | CC[C@H](C)[C@H](NC(=O)[C@H](Cc1ccccc1)NC(=O)[C@@H](NC(=O)CNC(=O)[C@H](CCC(=O)O)NC(=O)C(C)(C)NC(=O)[C@@H](N)Cc1ccc(O)cc1)[C@@H](C)O)C(=O)N[C@@H](CO)C(=O)N[C@@H](CC(=O)O)C(=O)N[C@@H](Cc1ccc(O)cc1)C(=O)N[C@@H](CO)C(=O)N[C@H](C(=O)NC(C)(C)C(=O)N[C@@H](CCCCNC(=O)CNC(=O)CNC(=O)CNC(=O)CNC(=O)CNC(=O)CCCCCCCCCCCCCCCCC(=O)O)C(=O)N[C@@H](CC(=O)O)C(=O)N[C@@H](CO)C(=O)N[C@@H](C)C(=O)N[C@@H](C)C(=O)N[C@@H](CCC(N)=O)C(=O)NC(C)(C)C(=O)N[C@@H](CC(=O)O)C(=O)N[C@@H](Cc1ccccc1)C(=O)N[C@H](C(=O)N[C@@H](CC(N)=O)C(=O)N[C@@H](Cc1c[nH]c2ccccc12)C(=O)N[C@@H](CC(C)C)C(=O)N[C@@H](CC(C)C)C(=O)N[C@@H](C)C(=O)N[C@@H](CCC(N)=O)C(=O)N[C@@H](CCCNC(=N)N)C(=O)NCC(=O)O)C(C)C)[C@@H](C)CC [Compound 151] | ≥ 15 mg/mL | ≥ 30 mg/mL
5 | CC[C@H](C)[C@H](NC(=O)[C@H](CCCCN)NC(=O)[C@H](CC(=O)O)NC(=O)[C@H](CC(C)C)NC(=O)[C@H](C)NC(=O)[C@@H](NC(=O)[C@H](CO)NC(=O)[C@H](Cc1ccc(O)cc1)NC(=O)[C@H](CC(=O)O)NC(=O)[C@H](CO)NC(=O)[C@@H](NC(=O)[C@H](Cc1ccccc1)NC(=O)[C@@H](NC(=O)CNC(=O)[C@H](CCC(=O)O)NC(=O)C(C)(C)NC(=O)[C@@H](N)Cc1ccc(O)cc1)[C@@H](C)O)[C@@H](C)CC)[C@@H](C)CC)C(=O)N[C@@H](C)C(=O)N[C@@H](CCC(N)=O)C(=O)NC(C)(C)C(=O)N[C@@H](CCCCNC(=O)COCCOCCNC(=O)COCCOCCNC(=O)CC[C@H](NC(=O)CC[C@H](NC(=O)CCCCCCCCCCCCCCCCC(=O)O)C(=O)O)C(=O)O)C(=O)N[C@@H](Cc1ccccc1)C(=O)N[C@H](C(=O)N[C@@H](CCC(=O)O)C(=O)N[C@@H](Cc1c[nH]c2ccccc12)C(=O)N[C@@H](CC(C)C)C(=O)N[C@@H](CC(C)C)C(=O)N[C@@H](C)C(=O)N[C@@H](CCC(N)=O)C(=O)N[C@@H](CCCNC(=N)N)C(=O)NCC(=O)O)C(C)C [Compound 153] (H-Y[Aib]EGTFISDYSIALDKIAQ[Aib]K([AEEA-AEEA-γGlu-γGlu-C18 diacid])FVEWLLAQRG-OH) | ≥ 15 mg/mL | ≥ 30 mg/mL
6 | CC[C@H](C)[C@H](NC(=O)[C@H](CO)NC(=O)[C@H](Cc1ccc(O)cc1)NC(=O)[C@H](CC(=O)O)NC(=O)[C@H](CO)NC(=O)[C@@H](NC(=O)[C@H](Cc1ccccc1)NC(=O)[C@@H](NC(=O)CNC(=O)[C@H](CCC(=O)O)NC(=O)C(C)(C)NC(=O)[C@@H](N)Cc1ccc(O)cc1)[C@@H](C)O)[C@@H](C)CC)C(=O)N[C@@H](C)C(=O)N[C@@H](CC(C)C)C(=O)N[C@@H](CC(=O)O)C(=O)N[C@@H](CCCCN)C(=O)N[C@@H](C)C(=O)N[C@@H](C)C(=O)N[C@@H](CCC(N)=O)C(=O)NC(C)(C)C(=O)N[C@@H](CCCCNC(=O)COCCOCCNC(=O)COCCOCCNC(=O)CC[C@H](NC(=O)CC[C@H](NC(=O)CCCCCCCCCCCCCCCCC(=O)O)C(=O)O)C(=O)O)C(=O)N[C@@H](Cc1ccccc1)C(=O)N[C@H](C(=O)N[C@@H](CCC(=O)O)C(=O)N[C@@H](Cc1c[nH]c2ccccc12)C(=O)N[C@@H](CC(C)C)C(=O)N[C@@H](CC(C)C)C(=O)N[C@@H](C)C(=O)N[C@@H](CCC(N)=O)C(=O)N[C@@H](CCCNC(=N)N)C(=O)NCC(=O)O)C(C)C [Compound 154] (H-Y[Aib]EGTFISDYSIALDKAAQ[Aib]K([AEEA-AEEA-γGlu-γGlu-C18 diacid])FVEWLLAQRG-OH) | ≥ 15 mg/mL | ≥ 30 mg/mL
7 | CC[C@H](C)[C@H](NC(=O)[C@H](CO)NC(=O)[C@H](Cc1ccc(O)cc1)NC(=O)[C@H](CC(=O)O)NC(=O)[C@H](CO)NC(=O)[C@@H](NC(=O)[C@H](Cc1ccccc1)NC(=O)[C@@H](NC(=O)CNC(=O)[C@H](CCC(=O)O)NC(=O)C(C)(C)NC(=O)[C@@H](N)Cc1ccc(O)cc1)[C@@H](C)O)[C@@H](C)CC)C(=O)N[C@@H](C)C(=O)N[C@@H](CC(C)C)C(=O)N[C@@H](CC(=O)O)C(=O)N[C@@H](CCCCN)C(=O)NC(C)(C)C(=O)N[C@@H](C)C(=O)N[C@@H](CCC(N)=O)C(=O)N[C@@H](C)C(=O)N[C@@H](CCCCNC(=O)COCCOCCNC(=O)COCCOCCNC(=O)CC[C@H](NC(=O)CC[C@H](NC(=O)CCCCCCCCCCCCCCCCC(=O)O)C(=O)O)C(=O)O)C(=O)N[C@@H](Cc1ccccc1)C(=O)N[C@H](C(=O)N[C@@H](CCC(=O)O)C(=O)N[C@@H](Cc1c[nH]c2ccccc12)C(=O)N[C@@H](CC(C)C)C(=O)N[C@@H](CC(C)C)C(=O)N[C@@H](C)C(=O)N[C@@H](CCC(N)=O)C(=O)N[C@@H](CCCNC(=N)N)C(=O)NCC(=O)O)C(C)C [Compound 155] (H-Y[Aib]EGTFISDYSIALDK[Aib]AQAK([AEEA-AEEA-γGlu-γGlu-C18 diacid])FVEWLLAQRG-OH) | ≥ 15 mg/mL | ≥ 30 mg/mL
8 | CC[C@H](C)[C@H](NC(=O)[C@H](CO)NC(=O)[C@H](Cc1ccc(O)cc1)NC(=O)[C@H](CC(=O)O)NC(=O)[C@H](CO)NC(=O)[C@@H](NC(=O)[C@H](Cc1ccccc1)NC(=O)[C@@H](NC(=O)CNC(=O)[C@H](CCC(=O)O)NC(=O)C(C)(C)NC(=O)[C@@H](N)Cc1ccc(O)cc1)[C@@H](C)O)[C@@H](C)CC)C(=O)N[C@@H](C)C(=O)N[C@@H](CC(C)C)C(=O)N[C@@H](CC(=O)O)C(=O)N[C@@H](CCCCN)C(=O)NC(C)(C)C(=O)N[C@@H](C)C(=O)N[C@@H](CCC(N)=O)C(=O)N[C@@H](CCCNC(=N)N)C(=O)N[C@@H](CCCCNC(=O)COCCOCCNC(=O)COCCOCCNC(=O)CC[C@H](NC(=O)CC[C@H](NC(=O)CCCCCCCCCCCCCCCCC(=O)O)C(=O)O)C(=O)O)C(=O)N[C@@H](Cc1ccccc1)C(=O)N[C@H](C(=O)N[C@@H](CCC(=O)O)C(=O)N[C@@H](Cc1c[nH]c2ccccc12)C(=O)N[C@@H](CC(C)C)C(=O)N[C@@H](CC(C)C)C(=O)N[C@@H](C)C(=O)N[C@@H](CCC(N)=O)C(=O)N[C@@H](CCCNC(=N)N)C(=O)NCC(=O)O)C(C)C [Compound 156] (H-Y[Aib]EGTFISDYSIALDK[Aib]AQRK([AEEA-AEEA-γGlu-γGlu-C18 diacid])FVEWLLAQRG-OH) | ≥ 15 mg/mL | ≥ 30 mg/mL
